The subject of data set [1] is cisplatin-induced hearing loss in patients with head and neck cancer. The following applies: in vivo.
The test system is the same in data set [2]. The following applies: in vivo. The text has this:
The primary outcome measure was the difference in incidence of a change in hearing between the baseline hearing test and the post-treatment hearing test, per ear, as defined by established ototoxicity grading scales. These scales report subjects who transition from normal hearing to hearing loss as well as those who transition from some hearing loss to more hearing loss. The criteria of two different grading scales was applied to the dataset (Table 4). The NCI CTCAEv5.0(34) classifies adverse changes in hearing based on auditory threshold shifts across a 1-8 KHz frequency range. TUNE ototoxicity grading criteria (Theunissen et al., 2014), which incorporate extended high frequency (EHF) data was also applied (see Table 5, FIG. 5).
Changes in hearing were primarily defined using CTCAEv5.0 criteria (Theunissen et al., 2014). However, cisplatin-induced ototoxicity is characterized initially as a high frequency (above 8 kHz) hearing loss that can spread to include lower frequencies (Brock et al., 1991). Therefore, the TUNE grading scale (Theunissen et al., 2014) was applied, which reports incidence and severity of hearing loss based on shifts in auditory thresholds across two frequency ranges: 1-4 kHz and 8-12.5 kHz (Table 4). The higher-frequency range of the TUNE scale was modified to include 6, 8 and 12.5 kHz due to insufficient data at 10 kHz in the dataset. Because many of the subjects had some hearing loss at baseline, the TUNE criteria was further modified so that Grades 3 and 4 utilized threshold shift data instead of absolute thresholds. A TUNE Grade 3 was redefined for this study as a ≥35 dB PTA threshold shift from the baseline to the post-treatment audiogram, and similarly Grade 4 was redefined as a ≥50 dB PTA threshold shift.
Changes in hearing, defined by TUNE criteria, were analyzed using categorical incidence (per ear) data. The incidence and severity distribution of a clinically meaningful hearing change, per ear, relative to statin use was analyzed using chi-square analyses (SAS PROC FREQ procedure). […] A logistic regression analysis (SAS PROC LOGISTIC procedure) with calculation of odds ratios and 95% confidence intervals was performed to identify associations between TUNE-defined changes in hearing and statin use after adjustment for significant covariates.
This is another data set of the same source.

The conditions of data set [3]: compared with lipophilic agents; Schachter et al., 2005; cited from earlier work.
The subject of data set [4] is low-density lipoprotein cholesterol. The following applies: clinical studies, comparison among statins; cited from earlier work.
The conditions of data set [5]: Schachter et al., 2005; cited from earlier work.
Data set [6] deals with cisplatin-induced hearing loss in patients with head and neck cancer. Kind of data set: Clinical hearing status (PTA of 1, 2 and 4 kHz) at follow-up after cisplatin therapy. The following applies: post-cisplatin therapy. In kind it is in vivo, human.
Data set [7] has as its system cytochrome P(450) enzymes. The following applies: Schachter et al., 2005; cited from earlier work.

Consider `N.N.[Cl][Pt][Cl]` [cisplatin], for which, in data set [1], the “high-frequency threshold shift after cisplatin therapy” value amounted to 13.7 dB. Further, the “individuals with clinically meaningful hearing loss after cisplatin therapy, TUNE criteria” value in data set [2] is “up to 53%”.
Take `CC(C)c1nc(N(C)S(C)(=O)=O)nc(-c2ccc(F)cc2)c1/C=C/[C@@H](O)C[C@@H](O)CC(=O)O` [rosuvastatin]: in data set [3], the hepatoselectivity result was “greater hepatoselectivity”. Also, the “effectiveness for reducing low-density lipoprotein cholesterol” value in data set [4] was “most effective”. Besides, in data set [5], the lipophilicity result is on record as “relatively hydrophilic”. In data set [6], the “hearing status at follow-up: Mild (PTA >20, <40), number of ears” value worked out at 14 No. Ears; the “hearing status at follow-up: Mild (PTA >20, <40), percent of ears” value is reported as “(63.64) %”; the “hearing status at follow-up: Moderate (PTA ≥40, ≤70), number of ears” value was determined as 6 No. Ears; the “hearing status at follow-up: Moderate (PTA ≥40, ≤70), percent of ears” value is “(27.27) %”. Moreover, in data set [6], the “hearing status at follow-up: Normal (PTA ≤20), number of ears” value is 2 No. Ears; the “hearing status at follow-up: Normal (PTA ≤20), percent of ears” value was “(9.09) %”; the “hearing status at follow-up: Profound (PTA ≥95), number of ears” value stood at 0 No. Ears; the “hearing status at follow-up: Severe (PTA >70, <95), number of ears” value turned out to be 0 No. Ears. The “metabolism by the cytochrome P(450) system” value in data set [7] is “not significantly metabolized”.
